Laboratory results: patent US10485814B2, “Nicotinamide riboside analogs and pharmaceutical compositions and uses thereof” (GlaxoSmithKline Intellectual Property (No. 2) Limited, priority 2014, dated 2019)
Structures can show the parent of a compound that is named as a salt.

Tested on: HaCaT cells (a human keratinocyte cell line)
Assay: Intracellular NAD measurement in HaCaT cells (ADPR cyclase enzymatic assay, absorbance 405 nm)
Type: cell-based
Settings: HaCaT in DMEM medium with Vit B3, highest tested doses, 3 hrs
Method: HaCaT cells (AddexBio Technologies, San Diego, Calif., Passage 16-19) were grown in Medium DMEM/GlutMax (Life technologies, Grand Island, N.Y.) supplemented with 10% FBS (Life technologies) and Non-essential amino acids (NEAA, Life technologies) and then seeded in 12-well plates (Corning, Tewksbury, Mass.) with a density at 2×10^5 cells per well and 2 ml of culture medium in each well for overnight.
Stock solution of dihydronicotinamide riboside (NRH, GSK3008320A, GSK, RTP, NC) was prepared in ethanol at 100 mM (25.6 mg/ml) and stored at −20° C. Cells were treated with different concentrations of NRH for 3 hrs, washed twice with PBS containing 5 mM EDTA, and then subject to Nicotinamide adenine dinucleotide (NAD) measurement. In brief, acetonitrile (ACN) lysis buffer (Ammonium Acetate (50 mM) and 90% acetonitrile) was added to each well (200 μl/well) to lyse the cells at RT for 5-10 mins by gently rotating on a culture plate shaker at a low speed. Enzyme master mix (300 μM of 5-Amino-(3,4′-bipyridin)-6(1H)-one (Inamrinone) (Sigma-Aldrich), a substrate for ADP ribosyl cyclase (ADPR cyclase)) and 30 nM ADPR Cyclase (Sigma, St. Louis, Mo.), 7.5 μM of N-(2-fluoro-4-(methylsulfonyl)phenyl)-2-methyl-6-(thiazol-5-yl)isonicotinamide (a CD38 inhibitor) in 75 mM HEPES pH7 buffer (Life Technologies)) was added to the lysed cells (400 μl of enzyme master mix/well). Enzymatic reaction was incubated at RT for ˜30 min. At the end of incubation, the supernatant (200 μl) of the reaction solution from each well was transferred to each well of a 96-well plate and absorbance was read twice in the 96-well plate at 405 nm using a plate reader (Spectra Maxplus, Molecular Devices, Sunnyvale, Calif.). A mixture of enzyme master mix and ACN extraction solution at 2:1 ratio was used as a blank reference. NAD (Sigma) was used as a positive control.
HaCaT cells were grown as described in example 23 in the regular cell culture DMEM medium as described earlier or in the Epilife medium without nacinamide (Life Technologies). Cells were treated with different concentrations of NRH or niacinamide (NIA, DSM nutritional products) for 3 hrs, washed twice with PBS containing 5 mM EDTA, and then subject to Nicotinamide adenine dinucleotide (NAD) measurement as described in example 23. A mixture of enzyme master mix and ACN extraction solution at 2:1 ratio for a blank reference. NAD (Sigma) was used as a positive control. […] Both the CD38 inhibitor and Niacinamide increased NAD in the HaCaT cells cultured in the Vit B3 depleted culture medium, and the induction of NAD by niacinamide was dose-dependent (solid bars). However, the induction of NAD by niacinamide (highest at ˜1.5 fold) was low compared to those by NRH. Therefore, NRH is a stronger NAD inducer compared to a CD38 inhibitor or Niacinamide.
HaCaT cells were grown in regular culture media as described in example 1 and seeded in 12-well plates with density at 2×10^5 cells per well and 1 ml of culture medium in each well. NRH stock solution was prepared in ethanol at 100 mM (25.6 mg/ml) and stored at −20° C. Stock solutions of NRH esters were made at 50 mM in DMSO (see FIG. 9B for compound info). Cells were treated with NRH esters and NRH at 150 μM for 6 and 16 hrs, washed twice with PB S containing 5 mM EDTA, and then subject to Nicotinamide adenine dinucleotide (NAD) measurement as described in example 23.
HaCaT cells were grown in regular culture media as described above and seeded in 12-well plates with density at 2×10^5 cells per well and 1 ml of culture medium in each well. NRH stock solution was prepared in ethanol at 100 mM (25.6 mg/ml) and stored at −20° C. NRH (200 μM) was used as a positive control. Because of the possible solubility issue related to NRH monoC16, fatty acid-free bovine serum albumin (defatted BSA, Sigma) was used as a carrier for the compound. NRH monoC16 stock solution (100×) was complexed with defatted BSA ([…]) prior to the treatment, resulting in a NRH monoC16 stock solution (10 ×). […]

SMILES | NAD elevation
Cc1cc(C(=O)Nc2ccc(S(C)(=O)=O)cc2F)cc(-c2cncs2)n1 [CD38 inhibitor, N-(2-fluoro-4-(methylsulfonyl)phenyl)-2-methyl-6-(thiazol-5-yl)isonicotinamide, reference compound] | did not lead to NAD elevation

Same assay, conditions: HaCaT in Vit B3 depleted culture medium, 3 hrs

SMILES | NAD level
Cc1cc(C(=O)Nc2ccc(S(C)(=O)=O)cc2F)cc(-c2cncs2)n1 [CD38 inhibitor, N-(2-fluoro-4-(methylsulfonyl)phenyl)-2-methyl-6-(thiazol-5-yl)isonicotinamide, reference compound] | increased NAD

Same assay, conditions: HaCaT, 150 μM

SMILES | appearance of treated cells (potential cytotoxicity)
CCCCCCCC/C=C\CCCCCCCC(=O)OC[C@H]1O[C@@H]([n+]2cccc(C(N)=O)c2)[C@H](O)[C@@H]1O [NR+ monooleate, 3-carbamoyl-1-((2R,3R,4S,5R)-3,4-dihydroxy-5-((oleoyloxy)methyl)tetrahydrofuran-2-yl)pyridin-1-ium 2,2,2-trifluoroacetate] | appeared unhealthy

Tested on: not listed separately
Assay: Gravimetric Vapor Sorption (GVS)
Type: physicochemical
Settings: 90% RH, 25° C.
Method: Gravimetric Vapor Sorption (GVS): Samples were analyzed using a VTI corporation (now part of TA Instruments) SGA-100 with Cahn microbalance equipped with quartz sample and reference pans. Samples were dried in the SGA-100 under dry nitrogen for 5 hours at 25° C. followed by a moisture absorption step ramp from 5% relative humidity (RH) to 95% or 90% RH followed by a desorption step ramp back to 5% or 10% RH (all steps at 25° C.). The samples were held at each % RH step for 4 hours.

SMILES | GVS weight gain from the dried state
CCCCCC(=O)OC[C@H]1O[C@@H](N2C=CCC(C(N)=O)=C2)[C@H](O)[C@@H]1O [mono C6-NRH derivative, nicotinamide riboside hydride 5′-monohexanoate] | approximately 5%

Tested on: not listed separately
Assay: Plasma hydrolysis of nicotinamide riboside analogs to NR (incubation with rat plasma, LC/MS/MS)
Type: in vitro ADME
Settings: 10 mM, incubated 30 min at 37° C.
Method: Compounds were diluted with rat plasma to a concentration of 10 millimolar (mM). Samples were incubated for 30 min at 37° C., taking 50 microL aliquots for analysis at 0 and 30 min. The aliquots were loaded onto a deep 96 well plate, then 350 microL of 0.1% (v:v) formic acid in acetonitrile was added to each well. The plate was covered and sealed to prevent evaporation, then it was placed on an orbital plate shaker set to 800-900 rps for 5-10 minutes. Next, the plate was centrifuged at around 3000 rpm for 5 min to provide a clear supernatant. For LC/MS/MS analysis, 200 microL of supernatant from each well was transferred onto a clean plate, which was subsequently capped and placed into an autosampler.
LCMS Conditions. For each well, a 10 microL sample was injected via autosampler onto a Chromolithe Performance, RP-18e (100×4.6 mm) column, and eluted with a binary gradient. Solvent A=0.1% formic acid, 0.1% N,N-dibutyl-N-methylamine (DBME) in 2 mM aqueous ammonium acetate (1:1:1000 v:v:v). Solvent B=0.1% formic acid in acetonitrile (1:1000 v:v). The solvent gradient was as follows: 0-0.22 min, 95:5 A:B; […], 95:5 A:B to 30:70 A:B (linear gradient); 5.05-6.05 min, 30:70 A:B; 6.05-6.60 min, 30:70 A:B to 95:5 A:B (linear gradient); 6.60-7.15 min, 95:5 A:B; stop elution at 7.15 min. Nicotinamide riboside eluted at approximately 1.7 min. A triple-quadrupole mass spectrometer was employed for peak identification. The identity of the analyte was confirmed by MS observation of a Q1 peak at m/z=255 (M)^+, and a Q3 peak at m/z=123.1 (M-C5H8O4)^+.
The results are shown in FIG. 3, with the release of free nicotinamide riboside measured using by HPLC-MS at 0, 30, and 60 minute time points (columns 5, 6, and 7 of table shown in FIG. 3). For each of NR esters in Table 3, except nicotinamide riboside tribenzoate, nicotinamide riboside was detected at the 30 minute time point.

SMILES | conversion to free nicotinamide riboside
CCCCCCCC/C=C\CCCCCCCC(=O)OC[C@H]1O[C@@H]([n+]2cccc(C(N)=O)c2)[C@H](O)[C@@H]1O [NR+ monooleate, 3-carbamoyl-1-((2R,3R,4S,5R)-3,4-dihydroxy-5-((oleoyloxy)methyl)tetrahydrofuran-2-yl)pyridin-1-ium 2,2,2-trifluoroacetate] | converted to free nicotinamide riboside to a significant degree
CCCCCCCCCCCC(=O)OC[C@H]1O[C@@H]([n+]2cccc(C(N)=O)c2)[C@H](O)[C@@H]1O.O=C([O-])C(F)(F)F [NR+ monododecanoate, nicotinamide riboside 5′-monododecanoate] | converted to free nicotinamide riboside to a significant degree
CCCCCCCCCCC(=O)OC[C@H]1O[C@@H]([n+]2cccc(C(N)=O)c2)[C@H](O)[C@@H]1O [NR+ monoundecanoate, nicotinamide riboside 5′-monoundecanoate] | converted to free nicotinamide riboside to a significant degree
NC(=O)c1ccc[n+]([C@@H]2O[C@H](COP(=O)([O-])O)[C@@H](O)[C@H]2O)c1 [Nic mononucleotide, nicotinamide mononucleotide, reference compound] | some amount of conversion to free nicotinamide riboside
CCCCCCCCCCCCCC(=O)OC[C@H]1O[C@@H](N2C=CCC(C(N)=O)=C2)[C@H](O)[C@@H]1O [NRH monotetradecanoate, ((2R,3S,4R,5R)-5-(3-carbamoylpyridin-1 (4H)-yl)-3,4-dihydroxytetrahydrofuran-2-yl)methyl tetradecanoate] | converted to free nicotinamide riboside to a significant degree
CCCCCCCCCC(=O)OC[C@H]1O[C@@H](N2C=CCC(C(N)=O)=C2)[C@H](O)[C@@H]1O [NRH monodecanoate, nicotinamide riboside hydride 5′-monodecanoate] | converted to free nicotinamide riboside to a significant degree
CCCCCCCCC(=O)OC[C@H]1O[C@@H]([n+]2cccc(C(N)=O)c2)[C@H](O)[C@@H]1O [NR+ monononanoate, 3-carbamoyl-1-((2R,3R,4S,5R)-3,4-dihydroxy-5-((nonanoyloxy)methyl)tetrahydrofuran-2-yl)pyridin-1-ium 2,2,2-trifluoroacetate] | converted to free nicotinamide riboside to a significant degree
CCCCCC(=O)OCC1O[C@@H]([n+]2cccc(C(N)=O)c2)[C@H](OC(=O)CCCCC)[C@@H]1OC(=O)CCCCC (stereo partly shown) [NR+ trihexanoate TFA-] | converted to free nicotinamide riboside to a significant degree
CCCCC(=O)OC[C@H]1O[C@@H]([n+]2cccc(C(N)=O)c2)[C@H](OC(=O)CCCC)[C@@H]1OC(=O)CCCC [1-((2R,3R,4R,5R)-3,4-bis(pentanoyloxy)-5-((pentanoyloxy)methyl)tetrahydrofuran-2-yl)-3-carbamoylpyridin-1-ium chloride] | converted to free nicotinamide riboside to a significant degree
CCCCCC(=O)OC[C@H]1O[C@@H]([n+]2cccc(C(N)=O)c2)[C@H](O)[C@@H]1O [NR+ monohexanoate, 3-carbamoyl-1-((2R,3R,4S,5R)-5-((hexanoyloxy)methyl)-3,4-dihydroxytetrahydrofuran-2-yl)pyridin-1-ium 2,2,2-trifluoroacetate] | converted to free nicotinamide riboside to a significant degree
CCCCC(=O)OC[C@H]1O[C@@H]([n+]2cccc(C(N)=O)c2)[C@H](O)[C@@H]1O [NR+ monopentanoate, 3-carbamoyl-1-((2R,3R,4S,5R)-3,4-dihydroxy-5-((pentanoyloxy)methyl)tetrahydrofuran-2-yl)pyridin-1-ium 2,2,2-trifluoroacetate] | converted to free nicotinamide riboside to a significant degree
CCOC(=O)OC[C@H]1O[C@@H](N2C=CCC(C(N)=O)=C2)[C@H](OC(=O)OCC)[C@@H]1OC(=O)OCC [NRH triethylcarbonate, ((2R,3R,4R,5R)-5-(3-carbamoylpyridin-1(4H)-yl)-3,4-bis((ethoxycarbonyl)oxy)-tetrahydrofuran-2-yl)methyl ethylcarbonate] | converted to free nicotinamide riboside to a significant degree
